Measured values published in PMC4052943 (BioMed Research International, 2014).
Where two headings read alike, the source gives them in different places.

Key:
[1] = tested on: Salmonella typhimurium TA102; assay: Ames antimutagenicity assay (preincubation);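 also: compound and mutagen preincubated 30 min at 37 °C before adding bacteria, His+ revertant colonies counted after 48 h at 37 °C, inhibition relative to mutagen-alone minus negative-control revertants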
Method: (§2) In the preincubation experiment, test compounds and mutagen, each having a volume of 0.1 mL of varying concentrations, were preincubated at 37°C for 30 min and then 0.1 mL of 1 × 10^7 CFU/mL density of the bacterial culture was added, followed by the addition of 2.5 mL of top agar at 45°C (containing 0.5% NaCl and 0.6% agar) supplemented with 0.5 mM histidine-biotin. […] The combined solutions were vortexed and poured onto minimal glucose plates (40% glucose solution and Vogel Bonner medium). The plates were incubated at 37°C for 48 h and the numbers of histidine-independent revertants colonies were scored.
(§3) Survival of the bacteria was routinely monitored for each experiment. Parallel controls were run with compounds alone at all concentrations to test the possible toxicity. The concentrations of the test samples for investigating the antimutagenicity were 50, 100, 200, and 500 μM. […] All the test samples and mutagens were dissolved in DMSO (final conc., 0.01%). […] Plates were set up in triplicate for each concentration and the entire experiment was repeated three times. Inhibition of mutagenicity was expressed as percentage decrease of reverse mutation and calculated as (1) Percent inhibition=[(a−b)/(a−c)]×100, where a = number of histidine revertants induced by mutagen, b = number of histidine revertants induced by mutagen in the presence of test compound, and c = number of revertants induced in negative control.

H1299 cells = assay: MTT cell proliferation assay; type: cell-based; details: Homo sapiens, NCI-H1299, 48 h, read-out: inhibition of cells (antiproliferative activity, MTT)
Method: (§1) Inhibition of cell proliferation by PC and EA was measured with the MTT assay. Human lung cancer A549 and H1299 cells were obtained from ATCC (Manassas, VA, USA) and maintained in DMEM supplemented with 10% fetal calf serum (FCS), 1% penicillin/streptomycin. Cells were plated in 96-well culture plates (5 × 10^3 cells/well). After 24 h incubation, cells were treated with vehicle alone (0.1% DMSO) and PC and EA (12.5–200 μg/mL) extracts for 48 h. Then, the culture medium was replaced by 100 μL of fresh medium containing 0.5 mg/mL MTT, and the plates were incubated for 2 h at 37°C. The medium was then removed and was replaced by 200 μL of DMSO to solubilize the converted purple dye. The absorbance was measured with a spectrophotometer microplate reader at a wavelength of 570 nm.

A549 cells = assay: MTT cell proliferation assay; type: cell-based; details: Homo sapiens, A549, 48 h, read-out: inhibition of cells (antiproliferative activity, MTT)
Method: as §1

[2] = tested on: Salmonella typhimurium TA100; assay: Ames antimutagenicity assay (preincubation); details: for inhibition at 50 µM / inhibition at 100 µM / inhibition at 250 µM / inhibition at 500 µM: Salmonella enterica, TYPHIMURIUM;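 as to all read-outs here: compound and mutagen preincubated together 30 min at 37°C before bacteria added, then plates incubated 48 h at 37°C, inhibition relative to mutagen-alone revertants after subtracting the negative control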
Method: as §2, §3

## O=C1O[C@H]2[C@@H]3OC(=O)c4cc(O)c(O)c(O)c4-c4c(O)c(O)c5oc(=O)c6c(c(O)c(O)c7oc(=O)c4c5c76)-c4c(cc(O)c(O)c4O)C(=O)OC[C@H]3OC(O)[C@@H]2OC(=O)c2cc(O)c(O)c(O)c2-c2c1cc(O)c(O)c2O (mixture of isomers) [Punicalagin]
[1]; Salmonella enterica, TYPHIMURIUM, read-out: % inhibition of mutagenicity, TA 102, 500 μM + NaN3, no S9
  inhibition at 500 µM: 59.8%
[1]; TA 102, 50 μM + 2AF, S9
  Number of His+ revertants colonies/plate: 1028.0 ± 21.8 colonies/plate
[1]; TA 102, 50 μM + BP, S9
  Number of His+ revertants colonies/plate: 635.0 ± 23.0 colonies/plate
[1]; TA 102, 50 μM + MMS, no S9
  Number of His+ revertants colonies/plate: 1072.0 ± 10.7 colonies/plate
[1]; TA 102, 50 μM + NaN3, no S9
  Number of His+ revertants colonies/plate: 346.3 ± 23.5 colonies/plate
[1]; TA 102, 100 μM + 2AF, S9
  Number of His+ revertants colonies/plate: 854.0 ± 31.6 colonies/plate
[1]; TA 102, 100 μM + BP, S9
  Number of His+ revertants colonies/plate: 595.0 ± 28.8 colonies/plate
[1]; TA 102, 100 μM + MMS, no S9
  Number of His+ revertants colonies/plate: 942.0 ± 16.2 colonies/plate
[1]; TA 102, 100 μM + NaN3, no S9
  Number of His+ revertants colonies/plate: 341.0 ± 19.1 colonies/plate
[1]; TA 102, 250 μM + BP, S9
  Number of His+ revertants colonies/plate: 496.0 ± 17.4 colonies/plate
[1]; TA 102, 250 μM + MMS, no S9
  Number of His+ revertants colonies/plate: 738.0 ± 14.8 colonies/plate
[1]; TA 102, 250 μM + NaN3, no S9
  Number of His+ revertants colonies/plate: 310.7 ± 16.0 colonies/plate
[1]; TA 102, 500 μM + 2AF, S9
  Number of His+ revertants colonies/plate: 563.0 ± 29.4 colonies/plate
[1]; TA 102, 500 μM + BP, S9
  Number of His+ revertants colonies/plate: 438.0 ± 19.5 colonies/plate
[1]; TA 102, 500 μM + MMS, no S9
  Number of His+ revertants colonies/plate: 509.0 ± 19.7 colonies/plate
H1299 cells
  inhibition at 50 µg/mL: 57%
A549 cells
  inhibition at 50 µg/mL: 34%
[2]; read-out: % inhibition of mutagenicity, TA 100, 50 μM + 2AF, S9
  inhibition at 50 µM: 22.4%
[2]; read-out: % inhibition of mutagenicity, TA 100, 50 μM + BP, S9
  inhibition at 50 µM: 30.6%
[2]; read-out: % inhibition of mutagenicity, TA 100, 50 μM + MMS, no S9
  inhibition at 50 µM: 13.8%
[2]; read-out: % inhibition of mutagenicity, TA 100, 50 μM + NaN3, no S9
  inhibition at 50 µM: 11.3%
[2]; read-out: % inhibition of mutagenicity, TA 100, 100 μM + 2AF, S9
  inhibition at 100 µM: 43.8%
[2]; read-out: % inhibition of mutagenicity, TA 100, 100 μM + BP, S9
  inhibition at 100 µM: 48.3%
[2]; read-out: % inhibition of mutagenicity, TA 100, 100 μM + MMS, no S9
  inhibition at 100 µM: 30.8%
[2]; read-out: % inhibition of mutagenicity, TA 100, 100 μM + NaN3, no S9
  inhibition at 100 µM: 33.1%
[2]; read-out: % inhibition of mutagenicity, TA 100, 250 μM + BP, S9
  inhibition at 250 µM: 64%
[2]; read-out: % inhibition of mutagenicity, TA 100, 250 μM + MMS, no S9
  inhibition at 250 µM: 45.3%
[2]; read-out: % inhibition of mutagenicity, TA 100, 250 μM + NaN3, no S9
  inhibition at 250 µM: 54.6%
[2]; read-out: % inhibition of mutagenicity, TA 100, 500 μM + 2AF, S9
  inhibition at 500 µM: 83.1%
[2]; read-out: % inhibition of mutagenicity, TA 100, 500 μM + BP, S9
  inhibition at 500 µM: 84.5%
[2]; read-out: % inhibition of mutagenicity, TA 100, 500 μM + MMS, no S9
  inhibition at 500 µM: 66%
[2]; read-out: % inhibition of mutagenicity, TA 100, 500 μM + NaN3, no S9
  inhibition at 500 µM: 74.3%
[2]; TA 100, 50 μM + 2AF, S9
  Number of His+ revertants colonies/plate: 426.7 ± 28.3 colonies/plate
[2]; TA 100, 50 μM + BP, S9
  Number of His+ revertants colonies/plate: 530.3 ± 26.4 colonies/plate
[2]; TA 100, 50 μM + MMS, no S9
  Number of His+ revertants colonies/plate: 856.3 ± 13.1 colonies/plate
[2]; TA 100, 50 μM + NaN3, no S9
  Number of His+ revertants colonies/plate: 342.0 ± 4.7 colonies/plate
[2]; TA 100, 100 μM + 2AF, S9
  Number of His+ revertants colonies/plate: 358.0 ± 12.2 colonies/plate
[2]; TA 100, 100 μM + BP, S9
  Number of His+ revertants colonies/plate: 442.7 ± 31.4 colonies/plate
[2]; TA 100, 100 μM + MMS, no S9
  Number of His+ revertants colonies/plate: 722.0 ± 15.0 colonies/plate
[2]; TA 100, 100 μM + NaN3, no S9
  Number of His+ revertants colonies/plate: 301.7 ± 7.8 colonies/plate
[2]; TA 100, 250 μM + BP, S9
  Number of His+ revertants colonies/plate: 366.0 ± 20.2 colonies/plate
[2]; TA 100, 250 μM + MMS, no S9
  Number of His+ revertants colonies/plate: 601.3 ± 12.3 colonies/plate
[2]; TA 100, 250 μM + NaN3, no S9
  Number of His+ revertants colonies/plate: 254.3 ± 10.8 colonies/plate
[2]; TA 100, 500 μM + 2AF, S9
  Number of His+ revertants colonies/plate: 245.0 ± 9.6 colonies/plate
[2]; TA 100, 500 μM + BP, S9
  Number of His+ revertants colonies/plate: 270.7 ± 15.6 colonies/plate
[2]; TA 100, 500 μM + MMS, no S9
  Number of His+ revertants colonies/plate: 451.7 ± 15.6 colonies/plate
[2]; TA 100, 500 μM + NaN3, no S9
  Number of His+ revertants colonies/plate: 232.3 ± 9.4 colonies/plate
